Consider 2 compounds from US20260183300A1, “PHARMACEUTICAL COMPOSITION AND USE THEREOF” (priority 2022, published 2026).

The structures appear in SMILES notation.

For data set [1] the following is noted: studies have shown; cited from earlier work.
For data set [2], the system named is THG15 cells. The data set is described as follows: Cell viability assay (CCK-8). The format is cell-based. As to conditions: Homo sapiens, 72 hours, estimated IC50, read-out: IC50 (half maximal inhibitory concentration), cell viability.
Procedure: Patient-derived tumor cell were obtained with the approval of the Ethics Committee of the Beijing Tsinghua Changgung Hospital in compliance with informed consent of the patient and their family. […] Briefly, the tissues were mechanically minced and then digested with 0.1% trypsin (Hyclone) and 10 U/ml DNasel (Roche) at 37° C. for 45 min. The tissues were passed through a 100-μm cell strainer after lysis of red blood cells and several washes. Cells that that passed through the filter were collected and added with EF medium composed of Neurobasal medium, 3 mM L-glutamine, 1×B27 supplement, 0.5×N2 supplement, 2 μg/mL heparin, 20 ng/mL recombinant human EGF (Sigma-Aldrich), 20 ng/mL recombinant human FGF2 (Sigma-Aldrich), and 0.5×antibiotic antimycotic complex. Fresh EF medium was replenished every 3 days during cell culture. Tumor cell spheres were dissociated using NeuroCult Chemical Dissociation kit (StemCell), and cells were passaged.
Panobinostat (LBH589) and Tazemetostat (EPZ-6438) were purchased from Selleck Chemicals and dissolved in 0.1% DMSO before use. About 5,000 THG15 cells were seeded into each well of a 96-well plate and cultured in EF medium for 24 hours prior to drug intervention. […] According to the instructions, cell viability was determined by using a CCK-8 kit (GK10001), and the optical density was measured at 450 nm using a SPARK reader (TECAN). […]

Consider `Cc1[nH]c2ccccc2c1CCNCc1ccc(/C=C/C(=O)NO)cc1` [panobinostat, Panobinostat], for which the “penetration of the blood-brain barrier” value in data set [1] is listed as “can penetrate the blood-brain barrier”. Besides, the IC50 in data set [2] is ~1 µM.

Turning to `CCN(c1cc(-c2ccc(CN3CCOCC3)cc2)cc(C(=O)NCc2c(C)cc(C)[nH]c2=O)c1C)C1CCOCC1` [tazemetostat, Tazemetostat], the IC50 in data set [2] was ~50 µM.
